From PubChem BioAssay AID248 (DTP/NCI, 2004) come the findings set out here.

This assay concerns L1210 leukemia ip in BDF1 mice, survival T/C. Put plainly: NCI In Vivo Anticancer Drug Screen. Data for tumor model L1210 Leukemia (intraperitoneal) in B6D2F1 (BDF1) mice. Particulars: endpoint: mean survival time, higher = longer survival. Put shortly:
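Transplanted-tumor mice were given test agent; controls received vehicle only. Survival readings from the two groups were divided (treated over control).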

Setting [1] is: dose: 25.0 mg/kg/injection, schedule: Q04DX003 (ip), vehicle: Klucel (hydroxypropylcellulose) (HPC).
[2] abbreviates: dose: 50.0 mg/kg/injection, schedule: Q04DX003 (ip), vehicle: Klucel (hydroxypropylcellulose) (HPC).
The mark [3] stands for this setting: dose: 100.0 mg/kg/injection, schedule: Q01DX009 (ip), vehicle: Klucel (hydroxypropylcellulose) (HPC).
The mark [4] stands for this setting: dose: 100.0 mg/kg/injection, schedule: Q04DX003 (ip), vehicle: Klucel (hydroxypropylcellulose) (HPC).
Setting [5] is: dose: 200.0 mg/kg/injection, schedule: Q04DX003 (ip), vehicle: Klucel (hydroxypropylcellulose) (HPC).
Where [6] appears, read: dose: 400.0 mg/kg/injection, schedule: Q04DX003 (ip), vehicle: Klucel (hydroxypropylcellulose) (HPC).
Setting [7] is: dose: 100.0 mg/kg/injection, schedule: Q04DX003 (ip), vehicle: saline.
Setting [8] is: dose: 200.0 mg/kg/injection, schedule: Q04DX003 (ip), vehicle: saline.
The mark [9] stands for this setting: dose: 400.0 mg/kg/injection, schedule: Q04DX003 (ip), vehicle: saline.
Setting [10] is: dose: 100.0 mg/kg/injection, schedule: Q04DX003 (ip), vehicle: saline with Tween-80.
Setting [11] is: dose: 200.0 mg/kg/injection, schedule: Q04DX003 (ip), vehicle: saline with Tween-80.
The mark [12] stands for this setting: dose: 400.0 mg/kg/injection, schedule: Q04DX003 (ip), vehicle: saline with Tween-80.
Where [13] appears, read: dose: 200.0 mg/kg/injection, schedule: Q01DX009 (ip), vehicle: Klucel (hydroxypropylcellulose) (HPC).
[14] abbreviates: dose: 400.0 mg/kg/injection, schedule: Q01DX009 (ip), vehicle: Klucel (hydroxypropylcellulose) (HPC).

Structures are written as SMILES. “And” between values parts separate entries of the source, which are not always exact repeats. Equal entries are not always repeated. Toxic doses and inconclusive results are not listed.

For `O=c1[nH]c2ccccc2n1C1CCN(CCCC(c2ccc(F)cc2)c2ccc(F)cc2)CC1`, the T/C is 100 % of control (dose: 12.5 mg/kg/injection, schedule: Q01DX009 (ip), vehicle: Klucel (hydroxypropylcellulose) (HPC)); 120 % of control (dose: 25.0 mg/kg/injection, schedule: Q01DX009 (ip), vehicle: Klucel (hydroxypropylcellulose) (HPC)); 88 % of control under setting [1]; 104 % of control under setting [2]; 88 % of control under setting [3]; 104 % of control under setting [4]. In addition, the T/C runs as follows: under setting [5], 109 % of control; under setting [6], 95 % of control.

Take `NC(=O)N/N=C(/CCC(=O)O)C(=O)O`: the T/C is, setting by setting: (dose: 100.0 mg/kg/injection, schedule: Q01DX001 (ip), vehicle: acetone) 98 % of control; (dose: 100.0 mg/kg/injection, schedule: Q01DX009 (ip), vehicle: acetone) 92 % of control; under setting [7], 89 % of control; (dose: 200.0 mg/kg/injection, schedule: Q01DX001 (ip), vehicle: acetone) 103 % of control; (dose: 200.0 mg/kg/injection, schedule: Q01DX009 (ip), vehicle: acetone) 100 % of control; under setting [8], 93 % of control and 87 % of control. Further, the T/C by setting is: (dose: 400.0 mg/kg/injection, schedule: Q01DX001 (ip), vehicle: acetone) 95 % of control; (dose: 400.0 mg/kg/injection, schedule: Q01DX009 (ip), vehicle: acetone) 94 % of control; under setting [9], 91 % of control.

Take `COc1ccc(C2NC(=O)N3C(c4ccc(OC)c(OC)c4)NC(=O)N23)cc1OC` (centres undefined): the T/C (dose: 100.0 mg/kg/injection, schedule: Q04DX002 (ip), vehicle: gum acacia) is 98 % of control; the T/C (dose: 200.0 mg/kg/injection, schedule: Q04DX002 (ip), vehicle: gum acacia) is 102 % of control; the T/C (dose: 400.0 mg/kg/injection, schedule: Q04DX002 (ip), vehicle: gum acacia) was 105 % of control.

Regarding `Nc1cccnc1NCC(O)c1ccccc1` (centres undefined), the T/C by setting is: (dose: 100.0 mg/kg/injection, schedule: Q01DX001 (ip), vehicle: saline) 103 % of control; (dose: 200.0 mg/kg/injection, schedule: Q01DX001 (ip), vehicle: saline) 97 % of control.

Turning to `CN(C)c1ccc(CC2Cc3ccccc3C2=O)cc1` (centres undefined), the T/C (dose: 100.0 mg/kg/injection, schedule: Q01DX009 (ip), vehicle: other) was 96 % of control; the T/C under setting [4] was 117 % of control; the T/C (dose: 200.0 mg/kg/injection, schedule: Q01DX009 (ip), vehicle: other) was 89 % of control; the T/C under setting [5] is 103 % of control; the T/C (dose: 400.0 mg/kg/injection, schedule: Q01DX009 (ip), vehicle: other) is 91 % of control; the T/C under setting [6] was 98 % of control.

On to `Cc1cc(Br)cnc1Cl`, for which the T/C reads like this: under setting [10], 96 % of control; under setting [11], 94 % of control; under setting [12], 96 % of control.

`CCCCCCCCc1cc(Cl)c(O)c(Cl)c1`: the T/C was 105 % of control (dose: 50.0 mg/kg/injection, schedule: Q01DX009 (ip), vehicle: Klucel (hydroxypropylcellulose) (HPC)); 105 % of control under setting [3]; 93 % of control under setting [13].

Regarding `CC1=CC(=N\S(=O)(=O)c2ccccc2)/C(=N/S(=O)(=O)c2ccccc2)C=C1`, the T/C reads like this: under setting [10], 94 % of control; under setting [11], 94 % of control; under setting [12], 92 % of control.

With `CSc1cc(C)n2nnnc2n1`, the T/C was 100 % of control (dose: 12.5 mg/kg/injection, schedule: Q01DX001 (ip), vehicle: saline); 96 % of control (dose: 25.0 mg/kg/injection, schedule: Q01DX001 (ip), vehicle: saline); 100 % of control (dose: 50.0 mg/kg/injection, schedule: Q01DX001 (ip), vehicle: saline).

As to `CSc1ccccc1C(=O)NNS(=O)(=O)c1ccc(C)cc1`, the T/C was 101 % of control under setting [3]; 95 % of control under setting [4]; 103 % of control under setting [13]; 97 % of control under setting [5]; 95 % of control under setting [14]; 97 % of control under setting [6].

In the case of `O=C1/C(=C\c2ccccc2)COC/C1=C\c1ccccc1`, the T/C is, setting by setting: (dose: 100.0 mg/kg/injection, schedule: Q01DX009 (ip), vehicle: saline) 94 % of control; (dose: 400.0 mg/kg/injection, schedule: Q01DX009 (ip), vehicle: saline) 87 % of control.

As for `CN(N=O)C(=O)NC1C(O)C(CO)OC1n1ccc(=O)[nH]c1=O` (centres undefined), the T/C is, setting by setting: under setting [7], 98 % of control; under setting [8], 96 % of control; under setting [9], 102 % of control.

`CC1(C)CCC(NC(=O)N(CCF)N=O)CC1`: the T/C is, setting by setting: (dose: 9.0 mg/kg/injection, schedule: Q01DX001 (ip), vehicle: other) 115 % of control; (dose: 13.0 mg/kg/injection, schedule: Q01DX001 (ip), vehicle: other) 122 % of control; (dose: 37.0 mg/kg/injection, schedule: Q01DX001 (ip), vehicle: other) 188 % of control; (dose: 50.0 mg/kg/injection, schedule: Q01DX001 (ip), vehicle: other) 352 % of control; (dose: 75.0 mg/kg/injection, schedule: Q01DX001 (ip), vehicle: other) 352 % of control.

As for `COC(=O)C1OC(n2cnc3c(=S)nc[nH]c32)C(OC(C)=O)C(OC(C)=O)C1OC(C)=O` (centres undefined), the T/C runs as follows: (dose: 50.0 mg/kg/injection, schedule: Q01DX001 (ip), vehicle: carboxymethylcellulose (CMC)) 103 % of control; (dose: 100.0 mg/kg/injection, schedule: Q01DX001 (ip), vehicle: carboxymethylcellulose (CMC)) 100 % of control; (dose: 200.0 mg/kg/injection, schedule: Q01DX001 (ip), vehicle: carboxymethylcellulose (CMC)) 100 % of control; (dose: 400.0 mg/kg/injection, schedule: Q01DX001 (ip), vehicle: carboxymethylcellulose (CMC)) 94 % of control.

As to `Nc1nc(N)nc(-c2ccccc2NN=Nc2ccccc2[N+](=O)[O-])n1`, the T/C by setting is: under setting [3], 103 % of control; under setting [13], 97 % of control; under setting [14], 100 % of control.

As to `Ic1ccc(NC2=NCCN2)c2ccccc12`, the T/C reads like this: under setting [1], 111 % of control; under setting [2], 100 % of control; under setting [4], 93 % of control and 91 % of control.

Turning to `c1ccc2cc(C3OCC4(CCCCC4)CO3)ccc2c1`, the T/C reads like this: (dose: 100.0 mg/kg/injection, schedule: Q01DX001 (ip), vehicle: Klucel (hydroxypropylcellulose) (HPC)) 96 % of control; (dose: 200.0 mg/kg/injection, schedule: Q01DX001 (ip), vehicle: Klucel (hydroxypropylcellulose) (HPC)) 100 % of control; (dose: 400.0 mg/kg/injection, schedule: Q01DX001 (ip), vehicle: Klucel (hydroxypropylcellulose) (HPC)) 100 % of control.
